# Reference: EP0302934A1, “ALICYCLIC DICARBOXYLIC ACID DERIVATIVES AND MUSCLE RELAXANTS CONTAINING THEM AS EFFECTIVE INGREDIENTS” (NIPPON ZEON CO., LTD., priority 1987, dated 1988)
# Entries after “also recorded” stand apart in the source; their conditions may differ.
# Legend:
# [1] = system: ICR male mice; assay: Horizontal wire test; assay type: in vivo; conditions: maximum number of fallen mice out of 6 per group; 100 mg/kg-body weight orally, suspended in 0.4% aqueous carboxymethyl cellulose
# Excerpt: Thereafter, at constant intervals of time, the mice were suspended by their forepaws on the metallic wire held horizontally, and the number of animals failing to hang was counted.
# [2] = system: Wister male rats; assay: Test method using anaemic decerebrate rigidity animals; assay type: in vivo; conditions: 3 mg/kg body weight intravenously in polyethylene glycol; three rats per group; visually followed over 60 minutes
# Method: Each of Compound 1 and Compound 3 obtained in the synthesis examples was dissolved into 100% polyethylene glycol (molecular weight ca. 400) to prepare test drugs having a concentration of 0.3%. According to the method of Fukuda et al. (Fukuda, H., Ito, T., Hashimoto, S. and Kudo, Y., Japan. J. Pharmacol., (1974) 24; 810), the rigidity was induced in Wister male rats (body weight 250 to 350 g). Thus, by ligating both the common carotid arteries and coagulating the basilarartery by means of high frequency wave, the rigidity was induced in the fore legs of the animals. Using three animals as one group, each test drug was intravenously administered to the animals so that the amount of active ingredient came to 3 mg/kg body weight. Thereafter, whether the rigidity in the fore legs of the rat was relaxed or not was visually followed over a continuous 60 minutes.
# [3] = in vivo; set-up: species or system mice; conditions: mouse, po
# Method: ICR male mice (body weight 20 to 30 g, 10 animals per one group) were used for the test.
# A test drug was prepared by suspending Compound 3 into 0.4% aqueous solution of carboxymethyl cellulose, and it was orally administered.
# Thereafter, the state of the animals was visually observed for 5 days. As the result, LD50 (mg/kg) was 1,000 mg/kg or more.
Molecule,No. of fallen cases [1],rigidity in the fore legs relaxed or not [2],LD50 at 120 h [3] [mg/kg]
"CC1C=CCC2C(=O)N(c3cc(Cl)cc(Cl)c3)C(=O)C12 (centres unmarked) [Compound 1, N-(3^1,5^1-Dichlorophenyl)-3-methyl-4-cyclohexene-l,2-dicarboxylic Acid Imide]",5,the rigidity disappeared,
"CC1C=CC(C)C(C(=O)Nc2cc(Cl)cc(Cl)c2)C1C(=O)[O-].[Na+] (centres unmarked) [Compound 7, Sodium 2-(3',5'-Dichlorophenyl-carbamoyl)-3,6-dimethyl-4-cyclohexenecarboxylate]",3,,
"CC1CCC(C)C2C(=O)N(c3cc(Cl)cc(Cl)c3)C(=O)C12 (centres unmarked) [Compound 4, N-(3' ,5'-Dichlorophenyl)-3,6-dimethyicyclo-hexane-l,2-dicarboxylic acid imide]",3,,
"2-(3',5'-Dichlorophenylcarbamoyl)-3(6)-methyl-4-cyclohexenecarboxylic Acid [Compound 5]",3,,
"CC1C=CC(C)C2C(=O)N(c3cc(Cl)cc(Cl)c3)C(=O)C12 (centres unmarked) [Compound 3, N-(3',5'-Dichlorophenyl)-3,6-dimethyl-4-cyclohexene-1,2-dicarboxylic acid imide]",3,the rigidity disappeared; also recorded: particularly marked rigidity - eliminating effect,≥ 1000
